Experimental findings from article PMC6973020, “Quinoline‐Conjugated Ruthenacarboranes: Toward Hybrid Drugs with a Dual Mode of Action” (Chemmedchem, 2019) are described below.

One data set has as its system MCF‐7 cells. Kind of data set: AO staining (acidic vacuoles, autophagy), MCF‐7. The class given is cell-based, human. To be noted: MCF‐7, 20 μM, 72 h. As for the experimental part:
Flow cytometry. For gaining better insights into the mechanisms of action of the ruthenium complexes, MCF‐7 and LN229 cells incubated with an IC50 dose of 3 or 4, were analyzed via flow cytometry. Several staining protocols were carried out in parallel, in independent experiments: i) AnnV/PI for the detection of apoptotic cell death, ii) AO for the detection of acidic vacuoles, iii) ApoStat for checking caspase activation, iv) CFSE for detecting interference with cellular proliferation, and v) DAPI for the detection of morphological signs of apoptosis. Untreated cells or cells treated only with BSA (control) were also measured, as reference for BSA‐free and BSA‐containing drug formulations, respectively. […] Channels FL1 (green emission), FL2 (orange emission) and/or FL3 (dark red emission) were used for fluorescence detection, according to the specific staining agent. Sideward Scatter (SSC) for MCF‐7 cells treated with 4 or BSA−4 was also analyzed, with respect to the control, for detection of shifts of cell granularity. […]
FCS, 2 mM L‐glutamine, 0.01% sodium pyruvate and antibiotics, at 37 °C in a humidified atmosphere with 5% CO2. […] Cells were counted and seeded in 96‐well plates and incubated overnight, as described above. […]
Staining Protocols for Flow Cytometric Analysis. […] Finally, cells were washed in PBS, resuspended in PBS (or AnnV‐binding buffer for AnnV/PI), and analysed. […]

Data set [1] in a line: Nanoparticle Tracking Analysis (NTA) in PBS/DMSO, with and without BSA. In kind it is physicochemical. The following applies: PBS, without BSA, 20 μM, 25 °C. The procedure:
Nanoparticle Tracking Analysis (NTA). 3 and 4 were analyzed via NTA to study the modulation of self‐assembly behavior in PBS/DMSO mixture (pH 7.4), with and without BSA, in an analogous way as described previously.9 Samples of 3 and 4 in PBS/DMSO were prepared as described above for UV‐vis measurements. The solutions were measured 30 min after preparation. Samples of BSA−3 and BSA−4 were prepared with two different BSA:ruthenacarborane ratios, namely 10 : 1 and 1 : 1. Stock solutions of BSA in PBS ([BSA]PBS=1.128 mM) were diluted to final concentrations of 200 or 20 μM with PBS (Vfin=5 mL), then an aliquot of the stock solution of 3 or 4 was added, so that the final concentration of metallacarborane was 20 μM. Content of DMSO was adjusted to 1 vol % (considering the amount of DMSO from the stock solutions) before addition of the ruthenacarborane, in all samples. The solutions of BSA−ruthenacarborane were measured 3.5–6 h after preparation. BSA alone in PBS/DMSO was also measured, as blank, using the same capture and processing parameters as for the respective BSA−metallacarborane samples, for direct comparison. All NTA measurements were performed at 25±0.1 °C. Each sample was measured in five independent captures. The time of each capture was set to 60 s.

With “closo ‐[3‐(η^6‐p‐Cymene)‐1‐(quinolin‐8‐yl‐acetate)‐3,1,2‐RuC2B9H10] [Compound 4]”, the “autophagy (AO staining)” value in the data set on MCF‐7 cells is on record as “suppressed autophagy”. Also, the “concentration of self‐assemblies” value in data set [1] is on record as 10^6–10^7 particles mL^−1.
In the same order, the values of “closo‐ [Compound 3, closo‐ [3‐(η^6‐p‐Cymene)‐1‐(CH2COOH)‐3,1,2‐RuC2B9H10]]” are “strongly amplified autophagic processes” and 10^6–10^7 particles mL^−1.
